In patent US10206877B2, “Pharmaceutical compositions for the treatment of cystic fibrosis transmembrane conductance regulator mediated diseases” (Vertex Pharmaceuticals Incorporated, priority 2014, dated 2019):
Values belong to the compound of their own block, whether it stands above or below them.

Assays:
[1] = Compound 1 crystallization kinetics at elevated temperature and 75% relative humidity; assay type: physicochemical; details: for Crystallization / stability towards crystallization: 75% relative humidity; for Compound 1 crystallized: at about 25 hours; for stability towards crystallization: 80° C. and 70° C. (FIGS. 12, 13)
Protocol: FIG. 12 is a plot of crystallization kinetics data for Compound 1 at 80° C. and 75% relative humidity when in a Compound 2 free tablet (circles), a spray dried dispersion (squares), and a tablet comprising Compound 2 (triangles).
FIG. 13 is a plot of crystallization kinetics data for Compound 1 at 70° C. and 75% relative humidity when in a Compound 2 free tablet (circles), a spray dried dispersion (squares), and a tablet comprising Compound 2 (triangles).
FIGS. 12 and 13 depict the Compound 1 crystallization kinetics under 75% relative humidity and 80° C. and 70° C., respectively. Triangles represent a tablet formulation of a blend of the two separate spray dried dispersions of Compound 1 and Compound 2. Circles represent the same tablet formulation just lacking Compound 2. Squares represent the separate spray dried dispersion of Compound 1.
The phenomena of one therapeutic agent having improved properties in the presence of another therapeutic agent is not limited to the neat co-spray dried dispersions substantially free of polymer previously described. […] Table 2 lists the % crystallization of an 80% by weight SDD of Compound 1 over time at 80° C. at 75% relative humidity in the absence of Compound 2. Table 3 lists the % crystallization of Compound 1 in the presence of Compound 2 in a tablet of the present invention comprising a blend of Compound 1 SDD and Compound 2 SDD at […] at 75% relative humidity.

[2] = Kinetic dissolution / fluid stability in fed state simulated intestinal fluid (FedSIF); assay type: physicochemical
Text: FIG. 9 is a bar graph of kinetic dissolution data for Compound 1 in fed state simulated intestinal fluid (FedSIF) solutions in the presence of Compound 2 in a neat coSDD substantially free of polymer and alone as measured by concentration versus time.
FIG. 10 is a bar graph of kinetic dissolution data for Compound 2 in FedSIF solutions in the presence of Compound 1 in a neat coSDD substantially free of polymer and alone as measured by concentration versus time.
The present invention features compositions where properties such as physical stability and dissolution rates are improved when one therapeutic agent is in the presence of another. […] FIG. 9 depicts fluid stability of Compound 1 in fed state simulated intestinal fluid (FedSIF). The set of bars labeled Neat 1:1 coSDD is the neat coSDD of Compound 1 and Compound 2 substantially free of polymer featured in the present invention. Along the y axis is concentration of Compound 1 in mg/ml and each bar along the x axis represents time: 0.5 h, 1 h, 3 h, 5 h, 29 h, and 72 h.
FIG. 10 depicts fluid stability of Compound 2 in compositions of the present invention in FedSIF. The set of bars labeled Neat 1:1 coSDD is the neat coSDD of Compound 1 and Compound 2 substantially free of polymer featured in the present invention.

[3] = Dissolution rate experiments in fasted simulated fluids; assay type: physicochemical; details: tablet of neat co-spray dried dispersion of Compound 1 and Compound 2 vs tablet of SDD of Compound 2 alone and polymer; fasted simulated fluids (FIG. 11)
Text: FIG. 11 is a plot of dissolution data for Compound 2 in fasted simulated fluids alone and in the presence of Compound 1 in a neat coSDD substantially free of polymer. […] FIG. 11 depicts the results of dissolution rate experiments for a tablet comprising the neat co-spray dried dispersion of Compound 1 and Compound 2 (circles) and a tablet comprising a spray dried dispersion of Compound 2 alone and polymer (triangles).

[4] = Dog pK of tablets (Compound 2 exposure); assay type: in vivo
Text: FIG. 11 depicts the results of dissolution rate experiments for a tablet comprising the neat co-spray dried dispersion of Compound 1 and Compound 2 (circles) and a tablet comprising a spray dried dispersion of Compound 2 alone and polymer (triangles). […] When Compound 2 is in the presence of Compound 1, the maximum concentration and area under the curve increases by 73% and 47%, respectively, relative to Compound 2 alone.

[5] = dog pK, ratio Neat coSDD tablet / Individual Tablets (Compound 2 alone)
[6] = dog, Compound 2 in the presence of Compound 1 relative to Compound 2 alone

Crystallization ([1]; 80% by weight SDD of Compound 1, absence of Compound 2, 80° C., 0 Hrs.): 0%
Crystallization ([1]; 80% by weight SDD of Compound 1, absence of Compound 2, 80° C., 5.2 Hrs.): 0%
Crystallization ([1]; 80% by weight SDD of Compound 1, absence of Compound 2, 80° C., 6 Hrs.): 0%
Crystallization ([1]; 80% by weight SDD of Compound 1, absence of Compound 2, 80° C., 9 Hrs.): 0.7%
Crystallization ([1]; 80% by weight SDD of Compound 1, absence of Compound 2, 80° C., 14.7 Hrs.): 5%
Crystallization ([1]; 80% by weight SDD of Compound 1, absence of Compound 2, 80° C., 25 Hrs.): 46.4%
Crystallization ([1]; 80% by weight SDD of Compound 1, absence of Compound 2, 80° C., 168 Hrs.): 88%
Compound 1 crystallized ([1]; in the absence of Compound 2): 46%
Crystallization ([1]; tablet comprising a blend of Compound 1 SDD and Compound 2 SDD, 80 CC, 0 Hrs.): 0%
Crystallization ([1]; tablet comprising a blend of Compound 1 SDD and Compound 2 SDD, 80 CC, 7 Hrs.): 3%
Crystallization ([1]; tablet comprising a blend of Compound 1 SDD and Compound 2 SDD, 80 CC, 14 Hrs.): 6%
Crystallization ([1]; tablet comprising a blend of Compound 1 SDD and Compound 2 SDD, 80 CC, 21 Hrs.): 8%
Crystallization ([1]; tablet comprising a blend of Compound 1 SDD and Compound 2 SDD, 80 CC, 26 Hrs.): 10%
stability towards crystallization ([1]; tablet formulation with Compound 2 vs separate spray dried dispersion of Compound 1): also more stable
Compound 1 crystallized ([1]; when Compound 2 was present): 10%
concentration stability of Compound 1 in FedSIF ([2]; 1:1 coSDD (20% HPMCAS) vs Compound 1 SDD (50% HPMCAS), over 72 h (FIG. 9)): concentration stability is greater
concentration stability of Compound 1 in FedSIF ([2]; 2:1 coSDD (20% HPMCAS) vs Compound 1 SDD (50% HPMCAS), over 72 h (FIG. 9)): more consistent
stability of Compound 1 concentration in FedSIF ([2]; Neat 1:1 coSDD (no polymer) vs Compound 1 SDD (50% HPMCAS), over 72 h (FIG. 9)): greater and more consistent stability
SMILES: CC(C)(CO)c1cc2cc(NC(=O)C3(c4ccc5c(c4)OC(F)(F)O5)CC3)c(F)cc2n1C[C@@H](O)CO [Compound 1, (R)-1-(2,2-difluorobenzo[d][1,3]dioxol-5-yl)-N-(1-(2,3-dihydroxypropyl)-6-fluoro-2-(1-hydroxy-2-methylpropan-2-yl)-1H-indol-5-yl)cyclopropanecarboxamide]
stability towards crystallization ([1]; tablet blend of the two separate SDDs vs Compound 2 free tablet): significantly more stable towards crystallization

AUC wt norm, Geometric Mean Ratio [4, 5]: 146.73
Cmax wt norm, Geometric Mean Ratio [4, 5]: 172.93
increase of area under the curve [4, 6]: 47%
increase of maximum concentration [4, 6]: 73%
concentration stability of Compound 2 in FedSIF ([2]; 1:1 coSDD (20% HPMCAS) vs Compound 2 SDD (20% HPMCAS), over 72 h (FIG. 10)): concentration stability is greater
concentration stability of Compound 2 in FedSIF ([2]; 2:1 coSDD (20% HPMCAS) vs Compound 2 SDD (20% HPMCAS), over 72 h (FIG. 10)): more consistent
stability of Compound 2 concentration in FedSIF ([2]; Neat 1:1 coSDD (no polymer) vs Compound 2 SDD (20% HPMCAS), over 72 h (FIG. 10)): increased stability
SMILES: CC(C)(C)c1cc(C(C)(C)C)c(NC(=O)c2c[nH]c3ccccc3c2=O)cc1O [Compound 2, N-[2,4-bis(1,1-dimethylethyl)-5-hydroxyphenyl]-1,4-dihydro-4-oxoquinoline-3-carboxamide]
dissolution rate of Compound 2 [3]: significant increase in dissolution rates
exposure in vivo ([4]; dog, tablet of neat coSDD relative to tablet of Compound 2 alone): statistically significant increases in exposure
